Source: patent US20110178104A1, “Anti-Heparin Compounds” (POLYMEDIX INC., priority 2010, published 2011)
In brackets after ≈: the same amount, converted by molar mass. Several values for one entry are separate records, joined by “and”; a condition that tells them apart may be missing. Identical values can stand only once.

Legend:
fondaparinux [1] = assay: In vivo neutralization of fondaparinux in the rat; details: fondaparinux 0.5 mg/kg IV, test agent 2 and 5 mg/kg IV
UFH [2] = assay: In vivo neutralization of unfractionated heparin in the rat; details: UFH 100 U/kg IV, 1 mg/kg dose IV
Procedure: The male Sprague-Dawley rats used in this study were obtained from Charles River Laboratories, Raleigh. They were nine-weeks-old at the start of the study and their weights ranged from 279-334 g. Rats were pre-treated with UFH administered by IV injection in a tail vein at 100 U/kg in a dose volume of 1 mL/kg. The rats were then treated with a single IV injection of saline, protamine or the appropriate test compound at doses of 0.25, 0.5 and 1.0 mg/kg. All treatments were dosed in a volume of 1 mL/kg. Blood was collected via the orbital sinus from three rats per group at the following time points after treatment: predose, 1, 3, 10, 30 and 60. At each time point, 1 mL of blood was collected from each animal into a single tube. The blood was analyzed using an AMEX Destiny Plus Coagulation Analyzer for activated partial thromboplastintime (APTT) and anti-Factor Xa.

fondaparinux [3] = assay: FXa amidolytic assay (Example 10), fondaparinux
enoxaparin [4] = assay: Enoxaparin-extended bleeding times, rat tail transection model; assay type: in vivo
Procedure: Studies have now been done to examine effects on extended bleeding times caused by enoxaparin treatment. Male Sprague Dawley rats (Charles River) were administered 2 mg/kg enoxaparin by IV injection in the tail vein, followed 3 minutes later by test agent (IV, tail vein) at 2 and 5 mg/kg doses. Tails were then rapidly transected and bleeding time onto an absorbant pad was determined. Enoxaparin alone (no antagonist) extends bleeding time from 11 to 24 seconds.

HepG2 cells = assay: Cytotoxicity colorimetric assay, HepG2; assay type: cell-based, human; details: one hour in serum-free media
Procedure, shortened: (§1)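 HepG2 cells (3×10^4/well, MEM + 10% FBS) and NIH/3T3 cells (2×10^4/well, DMEM + 10% BCS) were exposed to compound for 1 h in serum-free medium. Viability read by tetrazolium-to-formazan bioreduction after return to serum medium; EC50 from a four-parameter logistic fit.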

[5] = Cytotoxicity colorimetric assay, HepG2; assay type: cell-based, human; details: human, HepG2 cells, one hour in serum-free media
Procedure, shortened: as §1

UFH [6] = assay: FXa amidolytic assay (Example 10), UFH; details: read-out: Heparin FXa uM EC50; UFH 0.03 units/mL; human antithrombin, bovine Factor Xa
[7] = Coagulation properties via ROTEM; details: at fully efficacious doses
[8] = test system: isolated human erythrocytes; assay: in vitro; assay type: cell-based
Procedure, shortened: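 Pooled human red cells, washed and diluted from a 0.22% stock suspension in TBS pH 7.4, were shaken with two-fold dilutions (1000 to 0.48 µg/ml) for 1 h at 37 °C. Released hemoglobin in the supernatant was read at OD405. EC50 came from a four-parameter logistic fit, with melittin as positive control.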

NIH/3T3 cells = assay: Cytotoxicity colorimetric assay, NIH/3T3; assay type: cell-based, mouse; details: one hour in serum-free media
Procedure, shortened: as §1

[9] = Cytotoxicity colorimetric assay, NIH/3T3; assay type: cell-based, mouse; details: mouse, NIH/3T3 cells, one hour in serum-free media
Procedure, shortened: as §1

enoxaparin [10] = assay: In vivo neutralization of enoxaparin in the rat; details: compared with protamine
tinzaparin = assay: FXa amidolytic assay (Example 10), tinzaparin; details: read-out: Tinzap FXa EC50; tinzaparin 0.1 ug/ml; human antithrombin, bovine Factor Xa
blood pressure = assay: Hemodynamic responses in the anesthetized rat; assay type: in vivo
Unfractionated heparin = assay: aPTT clotting assay, UFH 0.4 U/mL in plasma (Example 10); assay type: biochemical; details: unfractionated heparin 0.4 U/mL in plasma; aPTT clotting
Procedure: aPTT clotting Assay: Unfractionated heparin was mixed with plasma at a final concentration of 0.4 U/mL (or concentration which increases aPTT time to between 120 and 300 seconds). […] The ACL Elite Hemostasis analyzer (Beckman Coulter™) was used to add aPTT reagent (HemosIL SynthASil) to supplemented plasma. Clotting was initiated by addition of CaCl2 and time to clot was recorded.

EC50 (fondaparinux [3]; read-out: Fondap FXa EC50, fondaparinux 0.02 μg/mL, human antithrombin, bovine Factor Xa): 575 nM and 530 nM and 452 nM | EC50 (UFH [6]): 0.101 µM | EC50 (tinzaparin): 124 nM and 96 nM | EC50 (Unfractionated heparin): 1390 nM and 1840 nM
Structure (SMILES): COc1ccc(NC(=O)[C@@H](CCCNC(=N)N)NC(=O)c2cc(NC(=O)[C@@H](CCCNC(=N)N)NC(=O)c3cc(NC(=O)[C@@H](CCCNC(=N)N)NC(=O)c4cc(NC(=O)[C@H](N)CCCNC(=N)N)ccc4OCC(=O)O)ccc3OC)ccc2OC)cc1C(N)=O [Compound 283]
reduction of Factor Xa (anti-factor Xa) levels after fondaparinux (fondaparinux [1]): lack of effectiveness | neutralization of UFH activity in aPTT assays (UFH [2]): complete neutralization | Potent LMWH-antagonists with superior anti-fondaparinux activity (summary) (fondaparinux [3]): superior anti-fondaparinux activity | in vivo efficacy versus LMWH by bleeding time (summary) (enoxaparin [4]; compared with protamine): superior to protamine | neutralization of prolonged bleeding times (enoxaparin [4]; rat, enoxaparin 2 mg/kg IV, test agent 2 mg/kg IV): completely neutralized | Cytotoxicity HepG2 EC50 (HepG2 cells): >1000 µg/mL | EC50 at 1 h [5]: 1000 µg/mL (≈ 780 µM) | coagulation properties via ROTEM [7]: normal coagulation properties at fully efficacious doses | hemolysis and cytotoxicity (summary) [8]: non-hemolytic and low cytotoxicity | EC50 ([8]; Homo sapiens, Erythrocyte, 1 h, human RBC, 1 hour at 37° C., read-out: Hemolysis EC50): > 1000 µg/mL | Cytotoxicity 3T3 EC50 (NIH/3T3 cells): >1000 µg/mL | EC50 at 1 h [9]: 1000 µg/mL (≈ 780 µM) | in vivo efficacy versus LMWH by anti-factor Xa activity (summary) (enoxaparin [10]): superior to protamine | hemodynamic response profile (blood pressure; anesthetized rat, 8 or 16 mg/kg 10 minute IV infusion after heparin 50 U/kg): superior to protamine | hemodynamic liabilities (summary) (blood pressure; rat, in vivo): reduced hemodynamic liabilities
